Results published in patent publication US10583120B2, “Composition having a muscle-relaxant and anti-inflammatory activity” (Kolinpharma S.p.A., priority 2014, dated 2020).

Legend:
[1] = test system: TNFα release from differentiated THP-1 monocytes; assay: ELISA test (Test 1), release of TNFα into culture medium; format: cell-based, human; conditions: positive control at 100 μM, LPS 1 μg/ml for 2 hours
[2] = test system: IL-1β release from differentiated THP-1 monocytes; assay: ELISA test (Test 1), release of IL-1β into culture medium; format: cell-based, human; conditions: positive control at 100 μM, LPS 1 μg/ml for 2 hours
[3] = test system: human skeletal muscle myotubes; assay: Evaluation of the muscle-relaxant effect (Test 2), contractile activity of myotubes stimulated with carbacol; format: cell-based; conditions: myotubes with carbacol 3 mM, FIG. 5A; at least partly restored during washing
Protocol: The myoblasts were differentiated into myotubes in differentiation medium (DMEM: F12, with the addition of 2% of horse serum). The differentiated myotubes were used for the experiments from the fourth to the seventh day of maintenance in differentiation medium.
For the evaluation of the muscle-relaxant effect of MILESAX, human myoblasts were seeded onto microscope slides and, once they had reached at least about 70% confluence, they were maintained in differentiation medium for 4-7 days before being used for the experiments. The contractile activity of the myotubes was recorded with a TCS SP5 confocal microscope (Leica Microsystems) in transmitted-light mode with the 40× objective lens (HCX PL APO, 1.25 NA, Leica Microsystems) using the incubator associated with the microscope to maintain the cells under a controlled atmosphere (37° C., 5% CO2). […]
Not all the myotubes in the culture were capable of contracting, and similarly it was never possible to observe spontaneous contractions only in differentiation medium. […] The contractile activity of the identified active cell(s) was recorded with a confocal microscope in transmitted light, with an image acquired every 151 ms. […]

THP-1 cells = conditions: positive controls at 100 μM
Source text: The absorbance measured correlates directly with the number of live cells.

## CC(C)Cc1ccc(C(C)C(=O)O)cc1 (stereo not drawn) [ibuprofen]
[1]
  release of TNFα relative to vehicle/control: did not lead to any reduction in the release of TNFα
[2]
  release of IL-1β: no effect on the release of IL-1β

## COc1c(O[C@@H]2O[C@H](CO)[C@@H](O)[C@H](O)[C@H]2O)cc2c(c1OC)-c1ccc(SC)c(=O)cc1[C@@H](NC(C)=O)CC2 [Muscoril, thiocolchicoside]
[3]
  frequency of contractions per unit time (contractions per minute): clear tendency

## O=C(O)Cc1ccccc1Nc1c(Cl)cccc1Cl [diclofenac]
[1]
  release of TNFα relative to vehicle/control: significantly reduced the release of TNFα
[2]
  release of IL-1β: effective in reducing the release of IL-1β
THP-1 cells
  toxic effect on the cells (MTT test): no toxic effect on the cells
